Molecules are shown by their SMILES.

A short description of the data set: Drug solubility in medium-chain triglycerides (MCT, Miglyol 812 N); SORESOS 96-well assay, miniaturized shake-flask or literature. To be noted: decadic logarithm of molar solubility in MCTs (Miglyol 812 N), 24 h at room temperature; no literature source given. As for the experimental part: The excipient complies with the quality specifications of the European Pharmacopoeia. The solvents used for the ultra-performance liquid chromatography (UPLC) quantification were of UPLC grade.
(b) employing a miniaturized version of the shake-flask method in 2 mL glass vials,[33] or (c) collecting data from the literature.[12],[34] Each of the employed assays involved residual solid-state screenings by powder X-ray diffraction to identify potential solid-state changes during solubility screenings.
Consider `CN(C)C(=O)Cc1c(C(=O)O)n(Cc2cccc3ccccc23)c2ccc(F)cc12` [RO5066852], for which the “log10 S [M]” value is reported as -3.11 M.

As to `CC(C)(C)c1ccc(CN(CCc2cc(F)cc(C(F)(F)F)c2)C(=O)c2cc(C(F)(F)F)cc(Cl)c2F)cc1` [RO5072744], the “log10 S [M]” value was determined as 0.0355 M.

Consider `COc1ccc(Cl)cc1S(=O)(=O)N1CCOc2c(C)cc(C(=O)Nc3ccc(CC(=O)O)cc3)cc21` [RO5114497], for which the “log10 S [M]” value is listed as -3.73 M.

As for `Cc1cc(-c2ccc(C(F)(F)F)cc2)cc(-c2cccc(-c3cccc(S(N)(=O)=O)c3)n2)n1` [RO5132673], the “log10 S [M]” value is given as -2.96 M.

Take `CCc1cc(CCN(Cc2ccc(C(C)(C)C)cc2)C(=O)c2cc(C(F)(F)F)cc(Cl)c2F)ccc1Cl` [RO5132822]: the “log10 S [M]” value was -0.16 M.

On to `CCCS(=O)(=O)Nc1ccc(F)c(C(=O)c2c[nH]c3ncc(-c4ccc(Cl)cc4)cc23)c1F` [RO5185426], for which the “log10 S [M]” value is -3.06 M.

For `Cc1onc(-c2ccc(F)cc2)c1COc1ccc(C(=O)N2CCS(=O)(=O)CC2)cn1` [RO5186582], the “log10 S [M]” value is reported as -2.53 M.

With `Cc1onc(-c2ccccn2)c1COc1ccc(C(=O)N2CCOCC2)cn1` [RO5234906], the “log10 S [M]” value is -1.90 M.

Take `O=C(N[C@@H]1CCCC[C@H]1O)c1cnc(OCC(F)(F)F)c(-c2ccc(Cl)c(Cl)c2)c1` [RO5267683]: the “log10 S [M]” value is reported as -2.34 M.

For the compound `Cc1onc(-c2ccc(F)cn2)c1COc1ccc(C(=O)N2CCS(=O)(=O)CC2)cn1` [RO5292065], the “log10 S [M]” value is -2.89 M.

As for `Cc1cccc(C#Cc2cn(-c3cnn(C)c(=O)c3)c(C)n2)c1` [RO5372709], the “log10 S [M]” value is on record as -2.90 M.

Take `CC1(C(=O)N2C[C@H](S(=O)(=O)c3ccc(OCC(F)(F)F)cc3C(F)(F)F)C[C@@H]2C(=O)NC2(C#N)CC2)CC1` [RO5444101]: the “log10 S [M]” value was -2.64 M.

For the compound `Cn1cc(-c2ccc(S(=O)(=O)[C@@H]3C[C@@H](C(=O)NC4(C#N)CC4)N(C(=O)C4(C(F)(F)F)CC4)C3)c(C(F)(F)F)c2)cn1` [RO5459072], the “log10 S [M]” value is on record as -3.13 M.

For `COc1cc(C(F)(F)F)cc(SC)c1C(=O)N[C@@]1(c2ccccc2)C[C@@H](OC)CN(C)C1` [RO5469299], the “log10 S [M]” value is given as -1.78 M.

`COc1cc(C(=O)O)ccc1NC(=O)[C@@H]1N[C@@H](CC(C)(C)C)[C@](C#N)(c2ccc(Cl)cc2F)[C@H]1c1cccc(Cl)c1F` [RO5503781]: the “log10 S [M]” value is -1.68 M.

`Cn1ncc(C(=O)N2CCOCC2)c1C(=O)Nc1ccn2nc(-c3ccccc3)nc2c1` [RO5545965]: the “log10 S [M]” value is recorded as -3.23 M.

For `COC(=O)N1CC[C@@H]2[C@@H]1CCC[C@@]2(O)C#Cc1cccc(C)c1` [RO6805580], the “log10 S [M]” value is listed as -1.31 M.

Take `CN1C(=O)N(c2ccc(C#Cc3ccccc3)cn2)[C@@H]2CCC[C@H]21` [RO6805600]: the “log10 S [M]” value was -1.07 M.

In the case of `CN(C(=O)c1ccc(C#Cc2cc(F)ccc2F)cn1)C(C)(C)C` [RO6806127], the “log10 S [M]” value is on record as -1.29 M.

In the case of `CN(C(=O)c1ncc(C#Cc2cccc(F)c2)cn1)C(C)(C)C` [RO6807794], the “log10 S [M]” value was -1.40 M.

`Cc1sc(NC(=O)C2=C(C(=O)O)CCCC2)c(-c2nc(C3CC3)no2)c1C` [RO6858805]: the “log10 S [M]” value is given as -2.99 M.

With `Cn1nnnc1Cn1nnc2c(N3CC[C@@H](O)C3)nc(C(C)(C)C)nc21` [RO6868847], the “log10 S [M]” value is -1.56 M.

For the compound `O=C(CCc1ccc(OC(F)(F)F)cc1)N1C[C@@H]2CN(C(=O)c3ccc4[nH]nnc4c3)C[C@@H]2C1` [RO6888975], the “log10 S [M]” value was -4.07 M.

As to `N#Cc1cc(-c2ccc(F)c(F)c2)c2c(c1)cc1n2CCNC1=O` [RO6889199], the “log10 S [M]” value is on record as -3.08 M.

In the case of `O=C(OCc1ccc(OC(F)(F)F)cc1)N1C[C@@H]2CN(C(=O)c3ccc4n[nH]nc4c3)C[C@@H]2C1` [RO6897779], the “log10 S [M]” value is listed as -3.50 M.

Consider `CC1(C)OC2(CCN(C3=NC(=O)C4(Cc5ccccc5C4)O3)CC2)c2cccnc21` [RO6953958], for which the “log10 S [M]” value is listed as -2.47 M.

In the case of `Cc1ccc(-c2noc(C)c2COc2ccc(C(=O)NC3CCOCC3)nn2)cn1` [RO7017773], the “log10 S [M]” value was -2.24 M.

Take `CN1C(=O)N(c2c(F)cc(C#Cc3ccccc3)cc2F)C(=O)C[C@]12CCCc1ncccc12` [RO7059466]: the “log10 S [M]” value is -2.38 M.

On to `CN1CCN(c2ccc(C(=O)Nc3n[nH]c4ccc(Cc5cc(F)cc(F)c5)cc34)c(NC3CCOCC3)c2)CC1` [RO7102122], for which the “log10 S [M]” value was -2.69 M.

In the case of `Cn1c(COc2cc(Cl)c(C#N)cc2C(C)(C)C)n[nH]c1=O` [RO7189752], the “log10 S [M]” value is given as -2.76 M.

`O=C(O)COC(=O)Cc1ccccc1Nc1c(Cl)cccc1Cl` [aceclofenac]: the “log10 S [M]” value is given as -1.84 M.

Take `CO[C@@H](Cc1ccc(OCCc2nc(-c3ccccc3)oc2C)c2ccsc12)C(=O)O` [aleglitazar]: the “log10 S [M]” value is -2.77 M.

For `CCOC(=O)C1=C(COCCN)NC(C)=C(C(=O)OC)C1c1ccccc1Cl` (stereo not shown) [amlodipine], the “log10 S [M]” value is -1.45 M.

On to `C[C@@H](O[C@H]1OCCN(Cc2n[nH]c(=O)[nH]2)[C@H]1c1ccc(F)cc1)c1cc(C(F)(F)F)cc(C(F)(F)F)c1` [aprepitant], for which the “log10 S [M]” value was -3.40 M.

As to `COc1ccc(CCN2CCC(Nc3nc4ccccc4n3Cc3ccc(F)cc3)CC2)cc1` [astemizole], the “log10 S [M]” value is reported as -2.37 M.

Regarding `CC(C(=O)O)c1ccc2c(c1)[nH]c1ccc(Cl)cc12` (stereo not shown) [carprofen], the “log10 S [M]” value is on record as -1.29 M.

As to `CN(C)CCCN1c2ccccc2Sc2ccc(Cl)cc21` [chlorpromazine], the “log10 S [M]” value was -0.17 M.

On to `O=C1CCc2cc(OCCCCc3nnnn3C3CCCCC3)ccc2N1` [cilostazol], for which the “log10 S [M]” value is recorded as -3.68 M.

As to `CC(C)/N=c1\cc2n(-c3ccc(Cl)cc3)c3ccccc3nc-2cc1Nc1ccc(Cl)cc1` [clofazimine], the “log10 S [M]” value is recorded as -1.65 M.

For `CC(C)(Oc1ccc(Cl)cc1)C(=O)O` [clofibric acid], the “log10 S [M]” value was -0.63 M.

As to `O=C1Nc2ccc(Cl)cc2[C@@](C#CC2CC2)(C(F)(F)F)O1` [efavirenz], the “log10 S [M]” value is -0.22 M.

On to `CNC(=O)c1ccc(N2C(=S)N(c3ccc(C#N)c(C(F)(F)F)c3)C(=O)C2(C)C)cc1F` [enzalutamide], for which the “log10 S [M]” value is listed as -2.36 M.

For the compound `C#Cc1cccc(Nc2ncnc3cc(OCCOC)c(OCCOC)cc23)c1` [erlotinib], the “log10 S [M]” value was -2.70 M.

As to `Cc1cc(C#N)cc(C)c1Oc1nc(Nc2ccc(C#N)cc2)nc(N)c1Br` [etravirine], the “log10 S [M]” value was -3.28 M.

As for `OC(Cn1cncn1)(Cn1cncn1)c1ccc(F)cc1F` [fluconazole], the “log10 S [M]” value is on record as -2.19 M.

As to `O=C(O)c1ccccc1Nc1cccc(C(F)(F)F)c1` [flufenamic acid], the “log10 S [M]” value is -0.68 M.

With `CC(C)C(=O)Nc1ccc([N+](=O)[O-])c(C(F)(F)F)c1` [flutamide], the “log10 S [M]” value is listed as -0.97 M.

Regarding `COc1cc2ncnc(Nc3ccc(F)c(Cl)c3)c2cc1OCCCN1CCOCC1` [gefitinib], the “log10 S [M]” value is reported as -3.09 M.

On to `CCC1=C(C)CN(C(=O)NCCc2ccc(S(=O)(=O)NC(=O)N[C@H]3CC[C@H](C)CC3)cc2)C1=O` [glimepiride], for which the “log10 S [M]” value is given as -4.38 M.

Regarding `CC(C)C(=O)c1c(C(C)C)nn2ccccc12` [ibudilast], the “log10 S [M]” value was 0.0143 M.

Turning to `CCn1c(=O)c2c(nc(/C=C/c3ccc(OC)c(OC)c3)n2C)n(CC)c1=O` [istradefylline], the “log10 S [M]” value is given as -2.46 M.

Turning to `CCOC(=O)C1=C(C)NC(C)=C(C(=O)OCC)C1c1ccccc1/C=C/C(=O)OC(C)(C)C` [lacidipine], the “log10 S [M]” value is -2.00 M.

As to `CCOC(=O)N1CCC(=C2c3ccc(Cl)cc3CCc3cccnc32)CC1` [loratadine], the “log10 S [M]” value is given as -1.21 M.

`CC[C@H](C)C(=O)O[C@H]1C[C@@H](C)C=C2C=C[C@H](C)[C@H](CC[C@@H]3C[C@@H](O)CC(=O)O3)[C@H]21` [lovastatin]: the “log10 S [M]” value was -2.45 M.

Regarding `OC(c1cc(C(F)(F)F)nc2c(C(F)(F)F)cccc12)C1CCCCN1` (stereo not shown) [mefloquine], the “log10 S [M]” value is on record as -1.74 M.

For the compound `Clc1ccc(COC(Cn2ccnc2)c2ccc(Cl)cc2Cl)c(Cl)c1` (stereo not shown) [miconazole], the “log10 S [M]” value is listed as -0.86 M.

For the compound `OCCOc1ccc(/C(=C(/CCCl)c2ccccc2)c2ccccc2)cc1` [ospemifene], the “log10 S [M]” value is -1.47 M.

`CC1(C)CCC(C)(C)c2cc(Cn3cccn3)c(/C=C/c3ccc(C(=O)O)cc3)cc21` [palovarotene]: the “log10 S [M]” value is on record as -3.47 M.

For the compound `CC[C@@H]([C@H](C)O)n1ncn(-c2ccc(N3CCN(c4ccc(OC[C@@H]5CO[C@@](Cn6cncn6)(c6ccc(F)cc6F)C5)cc4)CC3)cc2)c1=O` [posaconazole], the “log10 S [M]” value is -3.55 M.

For the compound `CC(C)(C)NC(=O)[C@@H]1C[C@@H]2CCCC[C@@H]2CN1C[C@@H](O)[C@H](Cc1ccccc1)NC(=O)[C@H](CC(N)=O)NC(=O)c1ccc2ccccc2n1` [saquinavir], the “log10 S [M]” value was -3.11 M.

Take `CN1CC(=O)N2[C@H](c3ccc4c(c3)OCO4)c3[nH]c4ccccc4c3C[C@@H]2C1=O` [tadalafil]: the “log10 S [M]” value is recorded as -2.99 M.

On to `CC(C)(C)c1ccc(C(O)CCCN2CCC(C(O)(c3ccccc3)c3ccccc3)CC2)cc1` (stereo not shown) [terfenadine], for which the “log10 S [M]” value was -2.05 M.

On to `C/C(O)=C(\C#N)C(=O)Nc1ccc(C(F)(F)F)cc1` [teriflunomide], for which the “log10 S [M]” value was -2.30 M.

Consider `Cn1c(=O)c2[nH]cnc2n(C)c1=O` [theophylline], for which the “log10 S [M]” value is reported as -2.92 M.

On to `Cc1c(Cl)cccc1Nc1ccccc1C(=O)O` [tolfenamic acid], for which the “log10 S [M]” value is -1.65 M.

Regarding `Cc1cc(-n2c(=O)[nH]c(=O)n(C)c2=O)ccc1Oc1ccc(SC(F)(F)F)cc1` [toltrazuril], the “log10 S [M]” value is recorded as -2.35 M.

Consider `C[C@@H](c1ncncc1F)[C@](O)(Cn1cncn1)c1ccc(F)cc1F` [voriconazole], for which the “log10 S [M]” value was -1.45 M.

Source of the values: paper PMC11220795 (Molecular Pharmaceutics, 2024).
